The results in this text go back to ChEMBL document CHEMBL5226364, “Microbial Dimerization and Chlorination of Isoflavones by a Takla Makan Desert-Derived Streptomyces sp. HDN154127” (2023).

Common to all, as to assay type: functional
One assay relates to Candida albicans. The experiment in a line: Antifungal activity against monilia albicans assessed as inhibition of fungal growth incubated for 24 hrs by microbroth dilution method. (Broth dilution looks for growth in wells or tubes with falling amounts of substance.)
The subject of the next assay is Proteus sp. The experiment in a line: Antibacterial activity against Proteus sp. assessed as inhibition of bacterial growth incubated for 24 hrs by microbroth dilution method.
A further assay concerns Bacillus subtilis. The experiment in a line: Antibacterial activity against Bacillus subtilis assessed as inhibition of bacterial growth incubated for 24 hrs by microbroth dilution method.
Another assay has as its system Staphylococcus aureus. The experiment in a line: Antibacterial activity against methicillin-resistant Staphylococcus aureus assessed as inhibition of bacterial growth incubated for 24 hrs by microbroth dilution method.
In another assay the test system is Bacillus cereus. The experiment in a line: Antibacterial activity against Bacillus cereus assessed as inhibition of bacterial growth incubated for 24 hrs by microbroth dilution method.
Another assay has as its system Mycolicibacterium phlei. The experiment in a line: Antibacterial activity against Mycobacterium phlei assessed as inhibition of bacterial growth incubated for 24 hrs by microbroth dilution method.
In another assay the test system is Vibrio parahaemolyticus. The experiment in a line: Antibacterial activity against Vibrio parahaemolyticus assessed as inhibition of bacterial growth incubated for 24 hrs by microbroth dilution method.
Setting [1] is: Proteus sp. (in: enterobacteria), read-out: MIC.
[2] abbreviates: Bacillus subtilis, read-out: MIC.
Where [3] appears, read: Mycolicibacterium phlei, read-out: MIC.

≈ marks a conversion by molar mass, not a printed value. Where “and” joins values, the source holds several entries; their conditions need not be identical. Equal entries are not always repeated.

As usually defined, the MIC is the lowest concentration that inhibits growth of the organism. In the case of `O=c1c(-c2ccc(O)c(-c3c(O)cc(O)c4c(=O)c(-c5ccc(O)cc5)coc34)c2)coc2cc(O)ccc12`, the MIC in the assay on Candida albicans was greater than 50 µM; with Proteus sp. (setting [1]), 12 µM (≈ 6.27 µg/mL); in the assay on Bacillus subtilis, 12 µM (≈ 6.27 µg/mL); with Bacillus subtilis (setting [2]), 6.2 µM (≈ 3.24 µg/mL); in the assay with Staphylococcus aureus, greater than 50 µM.

Turning to `O=c1c(-c2ccc(O)c(-c3cc(-c4coc5c(Cl)c(O)cc(O)c5c4=O)ccc3O)c2)coc2cc(O)cc(O)c12`, the MIC in the assay with Bacillus cereus (Bacillus cereus, read-out: MIC) was greater than 50 µM; with Candida albicans, 1.6 µM (≈ 0.917 µg/mL); in the assay on Proteus sp. (setting [1]), greater than 50 µM; with Bacillus subtilis (setting [2]), greater than 50 µM; with Mycolicibacterium phlei (setting [3]), greater than 50 µM; with Staphylococcus aureus, greater than 50 µM. Moreover, the MIC with Vibrio parahaemolyticus turned out to be 1.6 µM (≈ 0.917 µg/mL).

As to `O=c1c(-c2ccc(Oc3c(O)cc(O)c4c(=O)c(-c5ccc(O)cc5)coc34)cc2)coc2c(Cl)c(O)cc(O)c12`, the minimum inhibitory concentration (MIC) with Bacillus cereus (Bacillus cereus, read-out: MIC) was greater than 50 µM; in the assay on Candida albicans, 1.6 µM (≈ 0.917 µg/mL); in the assay on Proteus sp. (setting [1]), greater than 50 µM; in the assay with Bacillus subtilis (setting [2]), 0.8 µM (≈ 0.458 µg/mL); in the assay with Mycolicibacterium phlei (setting [3]), greater than 50 µM; in the assay with Staphylococcus aureus, greater than 50 µM. The MIC with Vibrio parahaemolyticus came to 3.1 µM (≈ 1.78 µg/mL).

Take `O=c1c(-c2ccc(O)c(Oc3ccc(-c4coc5c(Cl)c(O)ccc5c4=O)cc3)c2)coc2cc(O)ccc12`: the MIC in the assay with Bacillus cereus (Bacillus cereus, read-out: MIC) was greater than 50 µM; with Candida albicans it was 1.6 µM (≈ 0.865 µg/mL); with Proteus sp. (setting [1]), greater than 50 µM; in the assay on Bacillus subtilis (setting [2]), 0.8 µM (≈ 0.433 µg/mL); in the assay on Mycolicibacterium phlei (setting [3]) it was greater than 50 µM; in the assay on Staphylococcus aureus, greater than 50 µM. Further, the MIC in the assay with Vibrio parahaemolyticus amounted to 0.8 µM (≈ 0.433 µg/mL).

Consider `O=C(O)c1cn(C2CC2)c2cc(N3CCNCC3)c(F)cc2c1=O` [CIPROFLOXACIN], for which the MIC in the assay on Bacillus cereus (Bacillus cereus, read-out: MIC) is less than 0.4 µM; in the assay on Proteus sp. (setting [1]) it was 0.8 µM (≈ 0.265 µg/mL); in the assay with Bacillus subtilis (setting [2]), less than 0.4 µM; in the assay on Mycolicibacterium phlei (setting [3]), less than 0.4 µM; in the assay with Staphylococcus aureus, greater than 50 µM; in the assay with Vibrio parahaemolyticus, less than 0.4 µM.

Regarding `O=c1c(-c2ccc(O)c(-c3c(O)ccc4c(=O)c(-c5ccc(O)cc5)coc34)c2)coc2cc(O)ccc12`, the MIC in the assay with Bacillus cereus (Bacillus cereus, read-out: MIC) was 3.1 µM (≈ 1.57 µg/mL); with Candida albicans, greater than 50 µM; in the assay with Proteus sp. (setting [1]), 50 µM (≈ 25.3 µg/mL); in the assay on Bacillus subtilis (setting [2]) it was 6.2 µM (≈ 3.14 µg/mL); in the assay on Mycolicibacterium phlei (setting [3]), 6.2 µM (≈ 3.14 µg/mL); with Staphylococcus aureus it was greater than 50 µM. Moreover, the minimal inhibitory concentration (MIC) with Vibrio parahaemolyticus was 12 µM (≈ 6.08 µg/mL).

With `O=c1c(-c2ccc(O)c(Oc3ccc(-c4coc5c(Cl)c(O)cc(O)c5c4=O)cc3)c2)coc2cc(O)ccc12`, the MIC in the assay on Bacillus cereus (Bacillus cereus, read-out: MIC) was greater than 50 µM; with Candida albicans it was 1.6 µM (≈ 0.891 µg/mL); with Proteus sp. (setting [1]), greater than 50 µM; with Bacillus subtilis (setting [2]), 1.6 µM (≈ 0.891 µg/mL); with Mycolicibacterium phlei (setting [3]) it was greater than 50 µM; in the assay on Staphylococcus aureus it was greater than 50 µM. In addition, the MIC with Vibrio parahaemolyticus came to 3.1 µM (≈ 1.73 µg/mL).

In the case of `O=c1c(-c2ccc(O)cc2)coc2cc(O)ccc12` [DAIDZEIN], the MIC is greater than 50 µM in the assay with Bacillus cereus (Bacillus cereus, read-out: MIC); greater than 50 µM in the assay with Candida albicans; greater than 50 µM with Proteus sp. (setting [1]); greater than 50 µM in the assay on Bacillus subtilis (setting [2]); greater than 50 µM with Mycolicibacterium phlei (setting [3]); greater than 50 µM in the assay with Staphylococcus aureus. In addition, the MIC in the assay with Vibrio parahaemolyticus is greater than 50 µM.

For the molecule `COc1cc(-c2coc3cc(O)c(-c4cc(-c5coc6cc(O)ccc6c5=O)ccc4O)cc3c2=O)ccc1O`, the MIC in the assay on Bacillus cereus (Bacillus cereus, read-out: MIC) is 12 µM (≈ 6.44 µg/mL); in the assay on Candida albicans, greater than 50 µM; in the assay with Proteus sp. (setting [1]), 12 µM (≈ 6.44 µg/mL); with Bacillus subtilis (setting [2]), 12 µM (≈ 6.44 µg/mL); in the assay on Mycolicibacterium phlei (setting [3]) it was 12 µM (≈ 6.44 µg/mL); in the assay on Staphylococcus aureus it was greater than 50 µM. Moreover, in the assay with Vibrio parahaemolyticus, the MIC is 50 µM (≈ 26.8 µg/mL).

In the case of `COc1c(O)ccc2c(=O)c(-c3ccc(O)c(-c4cc(-c5coc6cc(O)ccc6c5=O)ccc4O)c3)coc12`, the MIC was 25 µM (≈ 13.4 µg/mL) with Bacillus cereus (Bacillus cereus, read-out: MIC); greater than 50 µM with Candida albicans; greater than 50 µM with Proteus sp. (setting [1]); 25 µM (≈ 13.4 µg/mL) in the assay with Bacillus subtilis (setting [2]); 25 µM (≈ 13.4 µg/mL) in the assay with Mycolicibacterium phlei (setting [3]); greater than 50 µM with Staphylococcus aureus. The MIC in the assay with Vibrio parahaemolyticus was greater than 50 µM.

Regarding `O=c1c(-c2ccc(Oc3c(O)cc(O)c4c(=O)c(-c5ccc(O)cc5)coc34)cc2)coc2c(Cl)c(O)ccc12`, the MIC in the assay on Bacillus cereus (Bacillus cereus, read-out: MIC) was greater than 50 µM; in the assay on Candida albicans it was greater than 50 µM; in the assay on Proteus sp. (setting [1]), greater than 50 µM; with Bacillus subtilis (setting [2]), 0.4 µM (≈ 0.223 µg/mL); with Mycolicibacterium phlei (setting [3]), greater than 50 µM; in the assay with Staphylococcus aureus it was greater than 50 µM. In addition, in the assay on Vibrio parahaemolyticus, the MIC is greater than 50 µM.

For the molecule `O=c1c(-c2ccc(O)c(-c3c(O)cc(O)c4c(=O)c(-c5ccc(O)cc5)coc34)c2)coc2cc(O)cc(O)c12`, the MIC was 3.1 µM (≈ 1.67 µg/mL) with Bacillus cereus (Bacillus cereus, read-out: MIC); greater than 50 µM with Candida albicans; 0.8 µM (≈ 0.431 µg/mL) in the assay on Proteus sp. (setting [1]); 0.8 µM (≈ 0.431 µg/mL) in the assay on Bacillus subtilis (setting [2]); 0.8 µM (≈ 0.431 µg/mL) in the assay on Mycolicibacterium phlei (setting [3]); 0.8 µM (≈ 0.431 µg/mL) with Staphylococcus aureus. In addition, the MIC in the assay with Vibrio parahaemolyticus was 0.8 µM (≈ 0.431 µg/mL).

Consider `O=c1c(-c2ccc(O)cc2)coc2cc(O)cc(O)c12` [GENISTEIN], for which the MIC was greater than 50 µM in the assay with Bacillus cereus (Bacillus cereus, read-out: MIC); greater than 50 µM in the assay on Candida albicans; greater than 50 µM in the assay with Proteus sp. (setting [1]); greater than 50 µM in the assay on Bacillus subtilis (setting [2]); greater than 50 µM in the assay with Mycolicibacterium phlei (setting [3]); greater than 50 µM in the assay with Staphylococcus aureus. Further, the MIC with Vibrio parahaemolyticus was greater than 50 µM.

For the molecule NYSTATIN, the MIC with Candida albicans came to 25 µM.

For `O=c1c(-c2ccc(O)cc2)coc2c(-c3cc(-c4coc5cc(O)cc(O)c5c4=O)ccc3O)c(O)ccc12`, the MIC was 12 µM (≈ 6.27 µg/mL) in the assay with Bacillus cereus; 6.2 µM (≈ 3.24 µg/mL) in the assay on Bacillus cereus (Bacillus cereus, read-out: MIC); greater than 50 µM with Candida albicans; 25 µM (≈ 13.1 µg/mL) in the assay with Proteus sp.; 50 µM (≈ 26.1 µg/mL) in the assay on Proteus sp. (setting [1]); 25 µM and 12 µM in the assay with Bacillus subtilis. Moreover, the MIC is 12 µM and 25 µM in the assay on Mycolicibacterium phlei; 50 µM (≈ 26.1 µg/mL) in the assay on Vibrio parahaemolyticus.
